For 53 compounds, EC50 results are on record in patent US20180362543A1, “HIV REPLICATION INHIBITOR” (Shionogi & Co., Ltd., priority 2013, published 2018).

By pEC50 is commonly meant the EC50 on a negative log10 scale, so that one unit is a factor of ten.

pEC50: −log10 of the molar value.

In one test the test system is HIV (HTLV-III B strain). The experiment in a line: HIV replication inhibition assay (MTT, MT-4 cells). The format is cell-based. To be noted: 4 days culture, concentration at which cell cytotoxicity by virus is inhibited 50%. On the procedure: HIV (HTLV-III B strain) persistent infected human T cell strain Molt-4 clone 8 was cultured in 10% Fetal Bovine Serum-containing RPMI-1640 medium and the supernatant was filtrated, then the virus titer was measured and the solution was stored at −80° C. Each anti-human immunodeficiency virus active substance was diluted with the above cultured medium to the designated concentration, which was dispensed into 96 well micro plate by 50 μL. Next, a MT-4 cell suspended liquid was dispensed by 100 μL (2.5×10^4 cells), then the above HIV-containing supernatant diluted with the above cultured medium was added thereto by 50 μL (60 pfu (plaque forming unit)).
The obtained mixture was cultured at 37° C. in CO2 incubator for four days, then 3-(4,5-dimehylthiazole-2-yl)-2,5-diphenyltetrazolynium bromide (MTT) 5 mg/mL in PBS was added to each well by 30 μL, followed by 1 hr-cultivation. In this step, as formazan was precipitated by reduction of MTT in living cells, the cell supernatant was removed from all well by 150 μL, then a 150 μL of solution (10% Triton X-100 and […]) was added thereto, followed by shaking with a plate mixer, to elute formazan. The formazan was measured with a microreader at OD: 560 nm and 690 nm (wavelength) and the result was compared with the reference. EC50 means the compound concentration at which cell cytotoxicity by virus is inhibited 50%.
Compound `Cc1c(C(OC(C)(C)C)C(=O)O)c(-c2ccc3c(c2)CCCO3)c(C)c2c1[nH]c(=O)n2Cc1ccccc1` (centres unmarked) [Compound 3] had a pEC50 of 7.19.

In turn, `Cc1c(-c2c([C@H](OC(C)(C)C)C(=O)O)c(C)c3nc(O)c4ccccc4c3c2C)ccc2c1CCCO2` [Compound 8] had a pEC50 of 7.21.

Staying with this test, now noted: Human immunodeficiency virus 1, MT4, 96 h, 4 days culture, concentration at which cell cytotoxicity by virus is inhibited 50%.
`Cc1c([C@H](OC(C)(C)C)C(=O)O)c(-c2ccc3c(c2)CCCO3)c(C)c2c1ncc1ccsc12` [Compound 17] had a pEC50 of 7.23. The compound `Cc1ccc(-c2c(C)c3c(c(C)c2[C@H](OC(C)(C)C)C(=O)O)N(S(C)(=O)=O)Cc2ccccc2-3)cc1` [Compound 20] showed a pEC50 of 7.89. Consider `Cc1ccc(-c2c(C)c3c(c(C)c2[C@H](OC(C)(C)C)C(=O)O)NC(=O)CCc2ccccc2-3)cc1` [Compound 42], for which the pEC50 was 8.00. Still for that read-out and setting: for `Cc1ccc(-c2c(C)c3c(c(C)c2[C@H](OC(C)(C)C)C(=O)O)NC(=O)c2ccc(C)nc2O3)cc1` [Compound 48] the value was 7.54; for `Cc1ccc(-c2c(C)c3c(c(C)c2[C@H](OC(C)(C)C)C(=O)O)NC(=O)N(C2CCCCC2)CC3)cc1` [Compound 71], 7.80; for `Cc1c2c3c(c(C(OC(C)(C)C)C(=O)O)c1-c1ccc4c(c1)CCCO4)CCCN3S(=O)(=O)N(Cc1ccccc1)C2` (centres unmarked) [Compound 79], 7.82.

The same test, now with this note: Human immunodeficiency virus 1, MT4, 96 h, Table A-2, four days.
In turn, `Cc1ccc(-c2c(C)c3c(c(C)c2[C@H](OC(C)(C)C)C(=O)O)NS(=O)(=O)/C=C/CCCCO3)cc1` [Compound 88] had a pEC50 of 7.68. Still for that read-out and setting: for `Cc1ccc(-c2c(C)c3c(c(C)c2[C@H](OC(C)(C)C)C(=O)O)NS(=O)(=O)Cc2cc(F)ccc2-3)cc1` [Compound 91] the value was 8.38. Still for that read-out and setting: next, `Cc1ccc(-c2c(C)c3c(c(C)c2[C@H](OC(C)(C)C)C(=O)O)NS(=O)(=O)Cc2ccc(F)cc2-3)cc1` [Compound 95]: 8.01; `Cc1ccc(-c2c([C@H](OC(C)(C)C)C(=O)O)c(C)c3nc(O)c4cc(C)ccc4c3c2C)cc1` [Compound 96]: 7.49. Same read-out and setting: next, `Cc1ccc(-c2c([C@H](OC(C)(C)C)C(=O)O)c(C)c3nc(O)c4cc(C(F)(F)F)ccc4c3c2C)cc1` [Compound 98]: 7.66; `Cc1ccc(-c2c([C@H](OC(C)(C)C)C(=O)O)c(C)c3ncc4cc5ccccc5nc4c3c2C)cc1` [Compound 99]: 7.01.

`Cc1ccc(-c2c([C@H](OC(C)(C)C)C(=O)O)c(C)c3nc(O)c4cc(F)cnc4c3c2C)cc1` [Compound 100]: the pEC50 is 8.00. The compound `Cc1ccc(-c2c([C@H](OC(C)(C)C)C(=O)O)c(C)c3nc(O)c4cc5ccsc5nc4c3c2C)cc1` [Compound 101] showed a pEC50 of 7.77. For `Cc1ccc(-c2c(C)c3c(c(C)c2[C@H](OC(C)(C)C)C(=O)O)N(S(C)(=O)=O)Cc2cc(F)c(F)cc2-3)cc1` [Compound 108], the pEC50 was 7.92. `Cc1ccc(-c2c(C)c3c(c(C)c2[C@H](OC(C)(C)C)C(=O)O)N(S(C)(=O)=O)Cc2cccc(F)c2-3)cc1` [Compound 109] had a pEC50 of 8.04. The pEC50 values of the last two compounds are within 0.2 log units of each other. On the same count and under the same terms, for `Cc1ccc(-c2c(C)c3c(c(C)c2[C@H](OC(C)(C)C)C(=O)O)N(S(C)(=O)=O)Cc2ccc(C)cc2-3)cc1` [Compound 110] the value was 7.77; for `Cc1ccc(-c2c(C)c3c(c(C)c2[C@H](OC(C)(C)C)C(=O)O)NC(=O)C2(CCC2)N3)cc1` [Compound 111], 8.11. The same measure, in the same setting: next, `Cc1ccc(-c2c(C)c3c(c(C)c2[C@H](OC(C)(C)C)C(=O)O)NC(=O)C2(CCC(C)(C)CC2)N3)cc1` [Compound 112]: 8.07; `Cc1ccc(-c2c(C)c3c(c(C)c2[C@H](OC(C)(C)C)C(=O)O)NC(=O)C2(C[C@@H]4CC[C@H]2C4)N3)cc1` (some centres unmarked) [Compound 113]: 8.07. Still for that read-out and setting: next, `Cc1ccc(-c2c(C)c3c(c(C)c2[C@H](OC(C)(C)C)C(=O)O)N(S(C)(=O)=O)Cc2cc(C)ccc2-3)cc1` [Compound 115]: 8.22; `Cc1ccc(-c2c(C)c3c(c(C)c2[C@H](OC(C)(C)C)C(=O)O)N(S(C)(=O)=O)Cc2c-3ccc3cccnc23)cc1` [Compound 116]: 8.54; `COc1ccc2c(c1)CN(S(C)(=O)=O)c1c(C)c([C@H](OC(C)(C)C)C(=O)O)c(-c3ccc(C)cc3)c(C)c1-2` [Compound 122]: 8.42. Regarding `Cc1ccc(-c2c(C)c3c(c(C)c2[C@H](OC(C)(C)C)C(=O)O)NS(=O)(=O)Cc2cccc(C)c2-3)cc1` [Compound 125], the pEC50 is 7.41. This pEC50 lies 1.01 log units lower than the previous one. Regarding `Cc1ccc(-c2c(C)c3c(c(C)c2[C@H](OC(C)(C)C)C(=O)O)NS(=O)(=O)N(C2CCCCC2)CC3)cc1` [Compound 127], the pEC50 is 7.96.

For `Cc1ccc(-c2c(C)c3c(c(C)c2[C@H](OC(C)(C)C)C(=O)O)NS(=O)(=O)N(C2CCCCCC2)CC3)cc1` [Compound 128], the pEC50 is 8.00. In turn, `Cc1ccc(-c2c(C)c3c(c(C)c2[C@H](OC(C)(C)C)C(=O)O)NS(=O)(=O)N(C2CCCC2)CC3)cc1` [Compound 129] had a pEC50 of 8.11. With `Cc1ccc(-c2c(C)c3c(c(C)c2[C@H](OC(C)(C)C)C(=O)O)NS(=O)(=O)N(CC2CCCCC2)CC3)cc1` [Compound 130], the pEC50 was 7.92.

Compound `Cc1ccc(-c2c(C)c3c(c(C)c2[C@H](OC(C)(C)C)C(=O)O)NS(=O)(=O)N(C2CCOCC2)CC3)cc1` [Compound 131] showed a negative-log EC50 (pEC50) of 7.06.

Consider `COCCN1CCc2c(C)c(-c3ccc(C)cc3)c([C@H](OC(C)(C)C)C(=O)O)c(C)c2NS1(=O)=O` [Compound 132], for which the pEC50 was 7.66.

The compound `Cc1ccc(-c2c(C)c3c(c(C)c2[C@H](OC(C)(C)C)C(=O)O)NS(=O)(=O)N(Cc2ccc(F)cc2)CC3)cc1` [Compound 133] showed a pEC50 of 8.32. On the same count and under the same terms, next, `Cc1ccc(-c2c(C)c3c(c(C)c2[C@H](OC(C)(C)C)C(=O)O)NS(=O)(=O)N(C(c2ccccc2)c2ccccc2)CC3)cc1` [Compound 134]: 7.21.

The same test, now with this note: Human immunodeficiency virus 1, MT4, 96 h, Table A-3, four days.
The compound `Cc1ccc(-c2c(C)c3c(c(C)c2[C@H](OC(C)(C)C)C(=O)O)NC(=O)C2(CCCCCC2)N3)cc1` [Compound 140] had a pEC50 of 8.51.

`Cc1ccc(-c2c(C)c3c(c(C)c2[C@H](OC(C)(C)C)C(=O)O)N(S(C)(=O)=O)Cc2c-3ccc(C)c2F)cc1` [Compound 141] showed a pEC50 of 8.46. On to `Cc1ccc(-c2c(C)c3c(c(C)c2[C@H](OC(C)(C)C)C(=O)O)N(S(C)(=O)=O)Cc2c(F)ccc(F)c2-3)cc1` [Compound 142], for which the pEC50 is 8.36. Still for that read-out and setting: next, `Cc1ccc(-c2c(C)c3c(c(C)c2[C@H](OC(C)(C)C)C(=O)O)N(S(C)(=O)=O)Cc2cccnc2-3)cc1` [Compound 145]: 7.41.

Consider `Cc1ccc(-c2c(C)c3c(c(C)c2[C@H](OC(C)(C)C)C(=O)O)NC(=O)N(C2CCCCCC2)CC3)cc1` [Compound 148], for which the pEC50 is 8.06. Still for that read-out and setting: next, `Cc1ccc(-c2c(C)c3c(c(C)c2[C@H](OC(C)(C)C)C(=O)O)NC(=O)N(C2CCCC2)CC3)cc1` [Compound 149]: 7.64; `Cc1ccc(-c2c(C)c3c(c(C)c2[C@H](OC(C)(C)C)C(=O)O)NC(=O)N(CC2CCCCC2)CC3)cc1` [Compound 150]: 7.66. Regarding `Cc1ccc(-c2c(C)c3c(c(C)c2[C@H](OC(C)(C)C)C(=O)O)NC(=O)N(C(c2ccccc2)c2ccccc2)CC3)cc1` [Compound 152], the pEC50 was 7.80. The pEC50 values of the last two compounds are within 0.2 log units of each other.

Compound `Cc1ccc(-c2c([C@H](OC(C)(C)C)C(=O)O)c(C)c3nc(O)c4c(c3c2C)CCN(S(=O)(=O)c2ccc(F)cc2)C4)cc1` [Compound 153] gave a pEC50 of 7.33. Compared with the last compound, the pEC50 is 0.47 log units lower.

`Cc1ccc(-c2c(C)c3c(c(C)c2[C@H](OC(C)(C)C)C(=O)O)N(S(=O)(=O)C2CC2)Cc2ccccc2-3)cc1` [Compound 155] had a pEC50 of 7.41. As to `Cc1ccc(-c2c(C)c3c(c(C)c2[C@H](OC(C)(C)C)C(=O)O)NS(=O)(=O)Cc2cccc(F)c2-3)cc1` [Compound 156], the pEC50 was 7.64.

Still in this test, the particulars now being: Table A-2, four days.
In turn, `Cc1ccc(-c2c(C)c3c(c(C)c2[C@H](OC(C)(C)C)C(=O)O)N(S(C)(=O)=O)Cc2cc4c(cc2-3)OCCO4)cc1` [Compound 104] gave a pEC50 of 8.68. `Cc1ccc(-c2c(C)c3c(c(C)c2[C@H](OC(C)(C)C)C(=O)O)N(S(C)(=O)=O)Cc2cc4c(cc2-3)OCCO4)cc1` [Compound 105] showed a pEC50 of 7.42.

`Cc1ccc(-c2c(C)c3c(c(C)c2[C@H](OC(C)(C)C)C(=O)O)NS(=O)(=O)Cc2cc(C)ccc2-3)cc1` [Compound 117] had a pEC50 of 7.72. Compound `Cc1ccc(-c2c(C)c3c(c(C)c2[C@H](OC(C)(C)C)C(=O)O)NS(=O)(=O)Cc2cc(C)ccc2-3)cc1` [Compound 118] showed a pEC50 of 8.36. Same read-out and setting: next, `Cc1ccc(-c2c(C)c3c(c(C)c2[C@H](OC(C)(C)C)C(=O)O)NS(=O)(=O)Cc2ccc(C)cc2-3)cc1` [Compound 119]: 7.37; `Cc1ccc(-c2c(C)c3c(c(C)c2[C@H](OC(C)(C)C)C(=O)O)NS(=O)(=O)Cc2ccc(C)cc2-3)cc1` [Compound 120]: 8.29; `Cc1ccc(-c2c(C)c3c(c(C)c2[C@H](OC(C)(C)C)C(=O)O)NS(=O)(=O)Cc2c(F)cccc2-3)cc1` [Compound 123]: 7.05. On the same count and under the same terms, for `Cc1ccc(-c2c(C)c3c(c(C)c2[C@H](OC(C)(C)C)C(=O)O)NS(=O)(=O)Cc2c(F)cccc2-3)cc1` [Compound 124] the value was 8.09.
